Experimental data reported in US10175256B2, “Compositions and methods utilizing lysophosphatidylcholine scaffolds” (National University Of Singapore, priority 2013, dated 2019).
“And” between values parts separate entries of the source, which are not always exact repeats. Identical values can stand only once.

Tests used:
Mfsd2a = target: T1, Mfsd2a (Mus musculus, UniProt Q9DA75); assay: Competition transport assay with LPC-[3H]palmitate as ligand; type: cell-based; design: expressed in transfected cells; host or cells: HEK293; settings: 25 μM LPC-[3H]palmitate, 250 μM competitor, 15 mins
T1 sequence (Q9DA75 1-534): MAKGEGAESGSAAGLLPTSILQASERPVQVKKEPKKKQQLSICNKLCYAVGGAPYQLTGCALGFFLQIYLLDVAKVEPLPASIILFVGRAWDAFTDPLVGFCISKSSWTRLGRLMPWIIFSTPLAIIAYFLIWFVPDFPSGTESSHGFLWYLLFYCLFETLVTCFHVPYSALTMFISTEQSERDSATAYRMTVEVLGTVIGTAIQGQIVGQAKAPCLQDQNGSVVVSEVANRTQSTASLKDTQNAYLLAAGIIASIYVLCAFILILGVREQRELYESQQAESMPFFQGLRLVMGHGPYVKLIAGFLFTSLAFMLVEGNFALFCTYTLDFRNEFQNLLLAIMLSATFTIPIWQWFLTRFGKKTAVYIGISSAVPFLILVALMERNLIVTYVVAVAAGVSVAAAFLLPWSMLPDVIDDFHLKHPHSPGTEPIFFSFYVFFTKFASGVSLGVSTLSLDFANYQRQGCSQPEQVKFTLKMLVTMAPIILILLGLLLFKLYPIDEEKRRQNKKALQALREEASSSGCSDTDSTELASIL
Experimental: Briefly, 24 h post transfection of HEK293 cells with pcDNA3.1Mfsd2a (WT), pcDNA3.1Mfsd2aD92A (D92A), pcDNA3.1Mfsd2aD96A, or pcDNA3.1 (mock) plasmids were washed once with serum-free DMEM medium before addition of a mixture of 25 μM radiolabeled LPC-palmitate and 250 μM cold competitors, which were dissolved in 12% BSA. Total BSA concentration was kept constant in samples with or without cold competitors. Assays were performed at 37° C. for 30 mins. Competition assays with other LPC analogs such as foscholine detergents, and PAF were performed under the same conditions except for 15 mins. The reduced reaction time was necessary in order to limit potential negative effects of detergents and bioactive lipids on cell survival. All assays were performed in 12 well-plates with triplicates and at 37° C.
We next sought to determine ligand specificity and the chemical features of the LPC ligands that are required for transport by Mfsd2a.

mouse Mfsd2a [1] = target: T2, mouse Mfsd2a (Mus musculus, UniProt Q9DA75); assay: Cell-based free fatty acid transport/uptake in Mfsd2a expressing HEK293 cells (mass spectrometry, TLC; Table 1); settings: for Amount of each lipid species, mol percent in total phospholipid analysed / Amount of lipid species, mol percent in total phospholipid analysed / Amount of each lipid species normalized to internal standard, mol percent in total phospholipid analysed: replicate columns; for Amount of lipid species, mol percent in total phospholipid analysed / Amount of each lipid species normalized to internal standard, mol percent in total phospholipid analysed: Mfsd2a expressing HEK293 cells
T2 construct: expressed in transfected cells; host or cells: HEK293
T2 sequence (Q9DA75 1-534): T1 sequence (Q9DA75 1-534)
Experimental: (§1) FIG. 12. […] Std: free [^14C]-DHA. b. TLC analysis of phospholipids and neutral lipids of HEK293 cells transfected with mouse Mfsd2a and mutants after overnight incubation with 100 μM [^14C]-oleate. TLC protocol used was described in Methods. PC: phosphatidylcholine, PE: phosphatidylethanolamine, TAG: triglyceride, CE: cholesteryl ester.
(§2) For tissue lipid analysis, brain, liver, and heart of female WT and KO mice with age of 7-8 weeks born to HET mothers, and brains from e18.5 embryos were collected and immediately frozen with liquid nitrogen until extraction. Lipid extraction was followed by chloroform/methanol method. For cell-based free fatty acid transport, lipids from HEK293 cells expressing mouse Mfsd2a and mock controls after overnight treatment with 100 μM docosahexaenoic, arachidonic, eicosapentaenoic, alpha-linolenic, linoleic, oleic, palmitic acids in BSA complex were extracted using HIP buffer (hexane:iso-propanol 3:2, per volume) and dried under N2 gas. Phospholipid species were measured by high performance liquid chromatography (HPLC) 1100 system (Agilent) coupled with an Triple Quadrupole/Ion Trap mass spectrometer (4000Qtrap, Applied Biosystem). Levels of individual phospholipid species were analyzed as described previously and quantified using spiked internal standards that includes PC-14:0/14:0, PE-14:0/14:0, PS-14:0/14:0 (Avanti Polar Lipids, Alabaster, Ala., USA), and dioctanoyl PI (Echelon Biosciences, Inc., Salt Lake City, Utah, USA).

mouse Mfsd2a [2] = assay: as above; settings: for Amount of each lipid species, mol percent in total phospholipid analysed / Amount of each lipid species normalized to internal standard, mol percent in total phospholipid analysed / Amount of lipid species, mol percent in total phospholipid analysed: MS, replicate columns
Experimental: as §1, §2

[3] = Mfsd2a expressing HEK293 cells incubated with 100 uM Arachidonic fatty acid/BSA complex overnight, MS
[4] = 100 uM Alpha-linolenic fatty acid/BSA complex overnight
[5] = 100 uM Docosahexaenoic acid/BSA complex overnight, MS
[6] = 100 uM Oleic fatty acid/BSA complex overnight, MS
[7] = mock HEK293 cells incubated with 100 uM Arachidonic fatty acid/BSA complex overnight
[8] = mock HEK293 cells, 100 uM Docosahexaenoic acid/BSA complex overnight
[9] = mock HEK293 cells, 100 uM Oleic fatty acid/BSA complex overnight
[10] = Mfsd2a HEK293 cells, 100 uM fatty acid/BSA overnight
[11] = mock HEK293 cells, 100 uM fatty acid/BSA overnight

CCCCCCCCOP(=O)([O-])OCC[N+](C)(C)C [Fos-8]
competition of foscholines with LPC-[3H]palmitate (Mfsd2a): did not compete

CCCCCCCCCCOP(=O)([O-])OCC[N+](C)(C)C [Fos-10]
competition of foscholines with LPC-[3H]palmitate (Mfsd2a): did not compete

CCCCCCCCCCCCOP(=O)([O-])OCC[N+](C)(C)C [Fos-12]
competition of foscholines with LPC-[3H]palmitate (Mfsd2a): did not compete

CCCCCCCCCCCCCCCCCC(=O)OC[C@@H](O)COP(=O)(O)OCCN [LysoPE18:0]
Amount of each lipid species, mol percent in total phospholipid analysed (mouse Mfsd2a [1]; [3]): 0.2569 mol percent and 0.2304 mol percent and 0.2461 mol percent and 0.117 mol percent | Amount of lipid species, mol percent in total phospholipid analysed (mouse Mfsd2a [1]; [4]): 0.3947 mol percent and 0.2832 mol percent and 0.2186 mol percent and 0.3429 mol percent | Amount of lipid species, mol percent in total phospholipid analysed (mouse Mfsd2a [1]; 100 uM Linoleic fatty acid/BSA complex overnight): 0.1058 mol percent and 0.1018 mol percent and 0.1894 mol percent and 0.0869 mol percent | Amount of each lipid species normalized to internal standard, mol percent in total phospholipid analysed (mouse Mfsd2a [1]; [5]): 0.1666 mol percent and 0.2308 mol percent (2×) and 0.1334 mol percent | Amount of each lipid species normalized to internal standard, mol percent in total phospholipid analysed (mouse Mfsd2a [1]; 100 uM Eicosapentaenoic acid/BSA complex overnight, MS): 0.1092 mol percent and 0.307 mol percent and 0.1931 mol percent and 0.2135 mol percent | Amount of lipid species, mol percent in total phospholipid analysed (mouse Mfsd2a [1]; [6]): 0.09201 mol percent and 0.1193 mol percent and 0.148 mol percent and 0.05384 mol percent | Amount of each lipid species, mol percent in total phospholipid analysed (mouse Mfsd2a [2]; [7]): 0.1798 mol percent and 0.2163 mol percent and 0.1654 mol percent | Amount of each lipid species normalized to internal standard, mol percent in total phospholipid analysed (mouse Mfsd2a [2]; [8]): 0.2527 mol percent and 0.249 mol percent and 0.1539 mol percent | Amount of each lipid species normalized to internal standard, mol percent in total phospholipid analysed (mouse Mfsd2a [2]; mock HEK293 cells, 100 uM Eicosapentaenoic acid/BSA complex overnight): 0.2356 mol percent and 0.2515 mol percent and 0.1233 mol percent | Amount of lipid species, mol percent in total phospholipid analysed (mouse Mfsd2a [2]; [9]): 0.168 mol percent and 0.1023 mol percent and 0.04024 mol percent

CCCCCCCCCCCCCCCC/C=C\OC[C@@H](O)COP(=O)(O)OCCN [LysoPE18:0p]
Amount of each lipid species, mol percent in total phospholipid analysed (mouse Mfsd2a [1]; [3]): 0.5873 mol percent and 0.5865 mol percent and 0.323 mol percent and 0.5348 mol percent | Amount of each lipid species, mol percent in total phospholipid analysed (mouse Mfsd2a [2]; [7]): 0.6519 mol percent and 0.416 mol percent and 0.215 mol percent

CCCCCCCCCCCCCCCCCC/C=C\OC[C@@H](O)COP(=O)(O)OCCN [LysoPE20:0p]
Amount of each lipid species, mol percent in total phospholipid analysed (mouse Mfsd2a [1]; [3]): 0.3303 mol percent and 0.2723 mol percent and 0.1846 mol percent and 0.2172 mol percent | Amount of each lipid species, mol percent in total phospholipid analysed (mouse Mfsd2a [2]; [7]): 0.2922 mol percent and 0.183 mol percent and 0.1158 mol percent

CCCCCCCC/C=C\CCCCCCCC(=O)O [Oleic]
% DHA in PS (mouse Mfsd2a [1]; [10]): 0.1056% and 0.1088% and 0.1312% and 0.1092% | PS(sum) in total phospholipid (mouse Mfsd2a [1]; [10]): 2.787 mol percent and 2.992 mol percent and 3.252 mol percent and 2.587 mol percent | PS:36:1 in total phospholipid (mouse Mfsd2a [1]; [10]): 1.289 mol percent and 1.358 mol percent and 1.479 mol percent and 1.19 mol percent | PS:36:2 in total phospholipid (mouse Mfsd2a [1]; [10]): 0.4671 mol percent and 0.4839 mol percent and 0.5719 mol percent and 0.4252 mol percent | PS:36:3 in total phospholipid (mouse Mfsd2a [1]; [10]): 0.0188 mol percent and 0.02264 mol percent and 0.01888 mol percent and 0.01251 mol percent | PS:36:4 in total phospholipid (mouse Mfsd2a [1]; [10]): 0.003419 mol percent and 0.003995 mol percent and 0.004969 mol percent and 0.003335 mol percent | PS:38:2 in total phospholipid (mouse Mfsd2a [1]; [10]): 0.2325 mol percent and 0.2459 mol percent and 0.2529 mol percent and 0.1984 mol percent | PS:38:3 in total phospholipid (mouse Mfsd2a [1]; [10]): 0.1257 mol percent and 0.1554 mol percent and 0.1491 mol percent and 0.1276 mol percent | PS:38:4 in total phospholipid (mouse Mfsd2a [1]; [10]): 0.06539 mol percent and 0.08301 mol percent and 0.08249 mol percent and 0.07253 mol percent | PS:38:5 in total phospholipid (mouse Mfsd2a [1]; [10]): 0.008121 mol percent and 0.01199 mol percent and 0.01093 mol percent and 0.01084 mol percent | PS:40:4 in total phospholipid (mouse Mfsd2a [1]; [10]): 0.09916 mol percent and 0.08523 mol percent and 0.1014 mol percent and 0.07753 mol percent | PS:40:5 in total phospholipid (mouse Mfsd2a [1]; [10]): 0.05001 mol percent and 0.05638 mol percent and 0.05863 mol percent and 0.05419 mol percent | PS:40:6 in total phospholipid (mouse Mfsd2a [1]; [10]): 0.09445 mol percent and 0.09677 mol percent and 0.1222 mol percent and 0.0942 mol percent | PS:40:7 in total phospholipid (mouse Mfsd2a [1]; [10]): 0.01111 mol percent and 0.01199 mol percent and 0.008944 mol percent and 0.01501 mol percent | % DHA in PS (mouse Mfsd2a [2]; [11]): 0.107% and 0.1103% and 0.1249% | PS(sum) in total phospholipid (mouse Mfsd2a [2]; [11]): 2.685 mol percent and 3.082 mol percent and 2.902 mol percent | PS:36:1 in total phospholipid (mouse Mfsd2a [2]; [11]): 1.21 mol percent and 1.398 mol percent and 1.339 mol percent | PS:36:2 in total phospholipid (mouse Mfsd2a [2]; [11]): 0.4461 mol percent and 0.5356 mol percent and 0.4546 mol percent | PS:36:3 in total phospholipid (mouse Mfsd2a [2]; [11]): 0.0148 mol percent and 0.01325 mol percent and 0.01917 mol percent | PS:38:2 in total phospholipid (mouse Mfsd2a [2]; [11]): 0.2083 mol percent and 0.235 mol percent and 0.2311 mol percent | PS:38:3 in total phospholipid (mouse Mfsd2a [2]; [11]): 0.1326 mol percent and 0.1657 mol percent and 0.1369 mol percent | PS:38:4 in total phospholipid (mouse Mfsd2a [2]; [11]): 0.07625 mol percent and 0.06869 mol percent and 0.07723 mol percent | PS:38:5 in total phospholipid (mouse Mfsd2a [2]; [11]): 0.01081 mol percent and 0.01386 mol percent and 0.0115 mol percent | PS:40:4 in total phospholipid (mouse Mfsd2a [2]; [11]): 0.09048 mol percent and 0.1018 mol percent and 0.09531 mol percent | PS:40:5 in total phospholipid (mouse Mfsd2a [2]; [11]): 0.06829 mol percent and 0.04459 mol percent and 0.0619 mol percent | PS:40:6 in total phospholipid (mouse Mfsd2a [2]; [11]): 0.09845 mol percent and 0.1006 mol percent and 0.1134 mol percent | PS:40:7 in total phospholipid (mouse Mfsd2a [2]; [11]): 0.008536 mol percent and 0.00964 mol percent and 0.0115 mol percent

PE38:5
Amount of each lipid species, mol percent in total phospholipid analysed (mouse Mfsd2a [1]; [3]): 1.517 mol percent and 1.746 mol percent and 1.538 mol percent and 1.292 mol percent | Amount of each lipid species, mol percent in total phospholipid analysed (mouse Mfsd2a [1]; Mfsd2a expressing HEK293 cells incubated with 100 uM Eicosapentaenoic fatty acid/BSA complex overnight, MS): 0.8525 mol percent and 0.7862 mol percent and 1.249 mol percent and 0.8033 mol percent | Amount of lipid species, mol percent in total phospholipid analysed (mouse Mfsd2a [1]; [4]): 2.013 mol percent and 1.902 mol percent and 1.704 mol percent and 1.689 mol percent | Amount of each lipid species normalized to internal standard, mol percent in total phospholipid analysed (mouse Mfsd2a [1]; [5]): 0.6996 mol percent and 0.7565 mol percent and 0.8996 mol percent and 0.9147 mol percent | Amount of lipid species, mol percent in total phospholipid analysed (mouse Mfsd2a [1]; 100 uM Linoleic fatty acid/BSA complex overnight, MS): 0.714 mol percent and 1.007 mol percent and 0.7471 mol percent and 0.7035 mol percent | Amount of lipid species, mol percent in total phospholipid analysed (mouse Mfsd2a [1]; [6]): 0.6441 mol percent and 0.6477 mol percent and 0.57 mol percent and 0.5862 mol percent | Amount of each lipid species, mol percent in total phospholipid analysed (mouse Mfsd2a [2]; [7]): 1.648 mol percent and 1.509 mol percent and 1.4 mol percent | Amount of each lipid species, mol percent in total phospholipid analysed (mouse Mfsd2a [2]; mock HEK293 cells incubated with 100 uM Eicosapentaenoic fatty acid/BSA complex overnight): 1.214 mol percent and 0.8982 mol percent and 0.9456 mol percent | Amount of each lipid species normalized to internal standard, mol percent in total phospholipid analysed (mouse Mfsd2a [2]; [8]): 0.6844 mol percent and 0.8632 mol percent and 0.5129 mol percent | Amount of lipid species, mol percent in total phospholipid analysed (mouse Mfsd2a [2]; mock HEK293 cells, 100 uM Linoleic fatty acid/BSA complex overnight): 0.9188 mol percent and 0.8836 mol percent and 0.7914 mol percent | Amount of lipid species, mol percent in total phospholipid analysed (mouse Mfsd2a [2]; [9]): 0.809 mol percent and 0.6822 mol percent and 0.456 mol percent
